Assay results published in ChEMBL document CHEMBL1201862, “PubChem BioAssay data set” (2004).
Each block holds one compound with its values, some of them ahead of it. Active and inactive are the calls of the source.

Columns and labels:
[1] = biological target: Glucose-6-phosphate 1-dehydrogenase (Homo sapiens, UniProt P11413); experiment: human G6PD enzyme inhibitors, dose response, selectivity assay for P. falciparum G6PD inhibitor project, biochemical, fluorescence (AID 504792); type: functional
[2] = biological target: T1, Calpain-2 catalytic subunit (Sus scrofa, UniProt P43367); experiment: pig calpain II inhibitor potency, dose response, biochemical, fluorogenic peptide substrate (AID 1420); type: functional
T1 sequence (P43367 whole entry): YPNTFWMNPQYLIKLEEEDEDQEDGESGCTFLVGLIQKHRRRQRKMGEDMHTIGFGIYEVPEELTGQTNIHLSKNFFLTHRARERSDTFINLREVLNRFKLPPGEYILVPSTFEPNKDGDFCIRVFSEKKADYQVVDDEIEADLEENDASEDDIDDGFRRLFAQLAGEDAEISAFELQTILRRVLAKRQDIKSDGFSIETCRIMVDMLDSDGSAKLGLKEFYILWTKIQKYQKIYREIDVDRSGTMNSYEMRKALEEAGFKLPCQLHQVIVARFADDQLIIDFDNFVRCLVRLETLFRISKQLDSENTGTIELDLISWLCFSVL

Mu-type opioid receptor = Mu-type opioid receptor (Homo sapiens, UniProt P35372); type: functional, cell-based;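 also: U2OS cells with beta-arrestin recruitment to OPRM1 by beta-gal complementation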
[3] = biological target: 5-hydroxytryptamine receptor 2A (Mus musculus, UniProt P35363); type: functional, cell-based;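 also: CHO-K1 cells with tagged receptor and beta-arrestin; agonist potency measured as compound-induced activation of the receptor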
[4] = biological target: Voltage-dependent T-type calcium channel subunit alpha-1H (Homo sapiens, UniProt O95180); type: functional;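 also: channel activity triggered by adding a high calcium stimulation buffer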
Cytochrome P450 2C9 = Cytochrome P450 2C9 (Homo sapiens, UniProt P11712)
[5] = biological target: Induced myeloid leukemia cell differentiation protein Mcl-1 (Homo sapiens, UniProt Q07820); type: functional
Cytochrome P450 2C19 = Cytochrome P450 2C19 (Homo sapiens, UniProt P33261); experiment: Cytochrome panel assay with activity outcomes. Panel member name: p450-cyp2c19 Compounds with AC50 equal or less than 10 uM are considered active; type: functional; settings: read-out: AC50
Cytochrome P450 2D6 = Cytochrome P450 2D6 (Homo sapiens, UniProt P10635);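 also: CYP2D6 member of a cytochrome P450 panel assay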
[6] = biological target: T2, Corticotropin-releasing factor receptor 2/Corticotropin-releasing factor-binding protein (Homo sapiens, UniProt P24387+Q13324); experiment: activators of CRF receptor 2 with binding protein – uHTS hits, confirmation (AID 602473); type: functional; settings: read-out: EC50_Mean
T2 sequence (Q13324 whole entry): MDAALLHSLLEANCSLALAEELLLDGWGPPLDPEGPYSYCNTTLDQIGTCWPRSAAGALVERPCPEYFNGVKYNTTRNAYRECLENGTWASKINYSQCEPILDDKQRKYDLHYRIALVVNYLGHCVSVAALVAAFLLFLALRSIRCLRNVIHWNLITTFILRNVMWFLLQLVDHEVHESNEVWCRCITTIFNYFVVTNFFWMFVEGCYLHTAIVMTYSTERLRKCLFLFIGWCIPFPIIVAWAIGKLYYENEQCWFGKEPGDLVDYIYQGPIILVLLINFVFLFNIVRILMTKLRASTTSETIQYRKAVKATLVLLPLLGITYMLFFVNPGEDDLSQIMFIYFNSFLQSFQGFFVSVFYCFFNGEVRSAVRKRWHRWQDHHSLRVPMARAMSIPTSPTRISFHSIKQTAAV
T2 sequence (P24387 whole entry): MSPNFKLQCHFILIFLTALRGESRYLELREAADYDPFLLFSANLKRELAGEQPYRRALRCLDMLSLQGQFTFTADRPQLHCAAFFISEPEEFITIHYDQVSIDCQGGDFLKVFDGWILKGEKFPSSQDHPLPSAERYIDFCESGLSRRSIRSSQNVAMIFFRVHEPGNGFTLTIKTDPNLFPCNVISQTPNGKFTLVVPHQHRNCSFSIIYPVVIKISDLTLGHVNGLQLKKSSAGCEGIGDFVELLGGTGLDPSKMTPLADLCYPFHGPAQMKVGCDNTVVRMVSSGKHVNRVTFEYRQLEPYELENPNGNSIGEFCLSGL

[7] = biological target: T2, Corticotropin-releasing factor receptor 2/Corticotropin-releasing factor-binding protein; experiment: Dose Response confirmation of uHTS hits for small molecule antagonists of the CRF-binding protein and CRF-R2 receptor complex.; type: functional; settings: read-out: IC50_Mean
Cytochrome P450 3A4 = Cytochrome P450 3A4 (Homo sapiens, UniProt P08684);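 also: CYP3A4 tested as one member of a cytochrome P450 panel screen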
Cytochrome P450 1A2 = biological target: T3, Cytochrome P450 1A2 (Homo sapiens, UniProt P05177);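 also: PubChem cytochrome P450 panel assay, CYP1A2 panel member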
T3 sequence (P05177 whole entry): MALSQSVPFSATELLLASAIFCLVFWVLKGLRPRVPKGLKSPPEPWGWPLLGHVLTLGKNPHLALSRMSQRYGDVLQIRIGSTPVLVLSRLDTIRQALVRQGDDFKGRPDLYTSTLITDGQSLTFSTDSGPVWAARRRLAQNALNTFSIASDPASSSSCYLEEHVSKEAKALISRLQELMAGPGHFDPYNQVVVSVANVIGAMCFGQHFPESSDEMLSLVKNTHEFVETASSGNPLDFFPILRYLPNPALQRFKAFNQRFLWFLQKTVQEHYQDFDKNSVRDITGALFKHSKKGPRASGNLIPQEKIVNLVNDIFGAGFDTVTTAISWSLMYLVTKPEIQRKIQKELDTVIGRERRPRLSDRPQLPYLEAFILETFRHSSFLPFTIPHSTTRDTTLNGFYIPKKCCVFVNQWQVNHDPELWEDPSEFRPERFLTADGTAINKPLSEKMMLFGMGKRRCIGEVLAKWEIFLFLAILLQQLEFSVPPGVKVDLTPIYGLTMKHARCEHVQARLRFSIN

[8] = biological target: T4, Short transient receptor potential channel 4 (Mus musculus, UniProt Q9QUQ5); experiment: mouse TRPC4 channel inhibitors, dose response, cell-based, HEK293 TRPC4/mu-opioid, Fluo-4 calcium (AID 434942); type: functional;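 also: potency of inhibitors blocking the TRPC4 calcium response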
T4 sequence (Q9QUQ5 whole entry): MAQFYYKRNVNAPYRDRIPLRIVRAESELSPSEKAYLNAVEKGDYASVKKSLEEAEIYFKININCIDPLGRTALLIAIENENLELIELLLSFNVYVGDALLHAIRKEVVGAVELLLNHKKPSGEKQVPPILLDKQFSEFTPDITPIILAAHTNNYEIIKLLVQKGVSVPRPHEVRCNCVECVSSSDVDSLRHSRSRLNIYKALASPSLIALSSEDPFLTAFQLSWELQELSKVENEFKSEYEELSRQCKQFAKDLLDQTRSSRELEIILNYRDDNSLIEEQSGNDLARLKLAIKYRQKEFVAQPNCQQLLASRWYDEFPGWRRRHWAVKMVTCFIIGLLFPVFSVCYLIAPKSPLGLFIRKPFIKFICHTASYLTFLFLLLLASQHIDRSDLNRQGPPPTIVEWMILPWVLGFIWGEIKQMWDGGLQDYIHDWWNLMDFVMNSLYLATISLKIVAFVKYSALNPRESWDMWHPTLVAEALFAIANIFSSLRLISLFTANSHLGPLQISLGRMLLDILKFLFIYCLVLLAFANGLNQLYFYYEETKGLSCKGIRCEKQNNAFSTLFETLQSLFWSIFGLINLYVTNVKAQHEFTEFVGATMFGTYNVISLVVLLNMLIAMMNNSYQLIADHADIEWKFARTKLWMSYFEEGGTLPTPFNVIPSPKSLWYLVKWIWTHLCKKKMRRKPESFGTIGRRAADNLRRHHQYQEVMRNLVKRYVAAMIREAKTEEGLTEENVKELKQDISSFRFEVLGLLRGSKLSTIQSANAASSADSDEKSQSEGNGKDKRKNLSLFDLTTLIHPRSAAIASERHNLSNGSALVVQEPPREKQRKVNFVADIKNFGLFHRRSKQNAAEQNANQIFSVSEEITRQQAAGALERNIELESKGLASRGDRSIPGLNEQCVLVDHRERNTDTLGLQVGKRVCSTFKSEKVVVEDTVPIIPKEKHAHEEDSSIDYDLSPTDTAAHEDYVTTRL

Voltage-dependent T-type calcium channel subunit alpha-1H, sequence (O95180 whole entry): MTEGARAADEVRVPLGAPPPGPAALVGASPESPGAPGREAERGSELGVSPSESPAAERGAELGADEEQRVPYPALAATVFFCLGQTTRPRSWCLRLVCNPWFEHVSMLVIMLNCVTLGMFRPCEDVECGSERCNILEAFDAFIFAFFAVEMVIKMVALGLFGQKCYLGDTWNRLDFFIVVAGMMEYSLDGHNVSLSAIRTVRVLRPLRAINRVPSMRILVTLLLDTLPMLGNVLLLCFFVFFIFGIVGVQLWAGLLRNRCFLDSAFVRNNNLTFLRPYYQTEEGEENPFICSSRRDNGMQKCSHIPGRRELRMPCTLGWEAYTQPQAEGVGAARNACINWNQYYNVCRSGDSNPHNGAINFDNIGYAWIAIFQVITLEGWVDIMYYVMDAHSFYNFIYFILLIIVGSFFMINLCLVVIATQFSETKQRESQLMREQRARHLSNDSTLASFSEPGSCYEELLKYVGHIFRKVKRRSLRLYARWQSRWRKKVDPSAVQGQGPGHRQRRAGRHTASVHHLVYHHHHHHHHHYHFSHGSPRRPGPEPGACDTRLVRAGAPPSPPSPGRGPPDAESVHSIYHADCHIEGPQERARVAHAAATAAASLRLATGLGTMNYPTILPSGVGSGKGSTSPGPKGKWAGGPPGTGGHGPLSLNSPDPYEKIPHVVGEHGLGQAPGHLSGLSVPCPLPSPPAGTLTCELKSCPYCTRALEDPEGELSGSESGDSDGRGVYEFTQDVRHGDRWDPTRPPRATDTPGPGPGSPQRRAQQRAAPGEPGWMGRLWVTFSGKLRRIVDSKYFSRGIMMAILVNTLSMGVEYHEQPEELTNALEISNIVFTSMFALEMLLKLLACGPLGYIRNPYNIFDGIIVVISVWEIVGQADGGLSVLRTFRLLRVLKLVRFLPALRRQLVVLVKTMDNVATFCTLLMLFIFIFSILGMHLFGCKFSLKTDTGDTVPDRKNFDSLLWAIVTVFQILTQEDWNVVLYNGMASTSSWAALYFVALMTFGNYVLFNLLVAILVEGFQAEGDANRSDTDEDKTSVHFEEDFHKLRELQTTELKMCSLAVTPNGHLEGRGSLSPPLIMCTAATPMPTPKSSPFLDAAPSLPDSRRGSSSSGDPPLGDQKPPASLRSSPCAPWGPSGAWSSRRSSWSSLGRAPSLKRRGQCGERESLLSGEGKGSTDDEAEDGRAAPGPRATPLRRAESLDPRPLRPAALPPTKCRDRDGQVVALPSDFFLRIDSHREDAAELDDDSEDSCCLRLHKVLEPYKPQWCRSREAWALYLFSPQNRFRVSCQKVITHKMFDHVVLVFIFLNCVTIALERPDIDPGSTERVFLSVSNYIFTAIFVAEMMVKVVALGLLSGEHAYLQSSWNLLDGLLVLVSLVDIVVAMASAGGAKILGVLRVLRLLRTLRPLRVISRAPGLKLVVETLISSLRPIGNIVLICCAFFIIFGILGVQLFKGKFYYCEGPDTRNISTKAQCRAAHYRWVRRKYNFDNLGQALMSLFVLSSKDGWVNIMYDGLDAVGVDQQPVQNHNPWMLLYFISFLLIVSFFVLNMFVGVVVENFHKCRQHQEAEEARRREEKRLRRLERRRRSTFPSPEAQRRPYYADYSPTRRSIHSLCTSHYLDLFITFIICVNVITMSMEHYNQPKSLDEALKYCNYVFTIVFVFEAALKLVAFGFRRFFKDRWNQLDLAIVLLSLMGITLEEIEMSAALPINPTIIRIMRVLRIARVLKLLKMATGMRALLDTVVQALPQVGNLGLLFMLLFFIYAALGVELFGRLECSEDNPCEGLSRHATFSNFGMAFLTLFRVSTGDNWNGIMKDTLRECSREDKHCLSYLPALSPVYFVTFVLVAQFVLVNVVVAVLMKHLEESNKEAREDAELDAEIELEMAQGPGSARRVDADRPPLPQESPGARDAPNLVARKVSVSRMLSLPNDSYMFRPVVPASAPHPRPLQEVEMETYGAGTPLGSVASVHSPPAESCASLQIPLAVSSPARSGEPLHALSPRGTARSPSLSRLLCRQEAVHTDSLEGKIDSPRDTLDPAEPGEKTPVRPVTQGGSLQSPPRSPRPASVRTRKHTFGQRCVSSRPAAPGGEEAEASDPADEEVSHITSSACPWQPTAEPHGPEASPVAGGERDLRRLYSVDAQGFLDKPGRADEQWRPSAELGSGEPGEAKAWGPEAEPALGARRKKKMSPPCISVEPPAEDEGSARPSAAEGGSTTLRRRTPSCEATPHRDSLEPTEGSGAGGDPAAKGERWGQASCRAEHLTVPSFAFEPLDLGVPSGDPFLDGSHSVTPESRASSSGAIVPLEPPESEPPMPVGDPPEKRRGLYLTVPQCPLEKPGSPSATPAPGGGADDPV
Mu-type opioid receptor, sequence (P35372 whole entry): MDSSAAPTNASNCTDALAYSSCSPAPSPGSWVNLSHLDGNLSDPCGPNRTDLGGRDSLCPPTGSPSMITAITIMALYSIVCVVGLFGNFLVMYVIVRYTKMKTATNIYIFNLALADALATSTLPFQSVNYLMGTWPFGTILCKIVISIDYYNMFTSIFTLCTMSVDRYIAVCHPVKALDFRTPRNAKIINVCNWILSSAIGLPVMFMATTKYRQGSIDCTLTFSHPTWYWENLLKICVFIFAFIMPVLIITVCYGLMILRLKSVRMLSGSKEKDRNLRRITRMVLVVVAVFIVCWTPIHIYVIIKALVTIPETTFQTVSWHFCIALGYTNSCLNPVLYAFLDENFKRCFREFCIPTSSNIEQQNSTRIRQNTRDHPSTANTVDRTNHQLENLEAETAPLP
5-hydroxytryptamine receptor 2A, sequence (P35363 whole entry): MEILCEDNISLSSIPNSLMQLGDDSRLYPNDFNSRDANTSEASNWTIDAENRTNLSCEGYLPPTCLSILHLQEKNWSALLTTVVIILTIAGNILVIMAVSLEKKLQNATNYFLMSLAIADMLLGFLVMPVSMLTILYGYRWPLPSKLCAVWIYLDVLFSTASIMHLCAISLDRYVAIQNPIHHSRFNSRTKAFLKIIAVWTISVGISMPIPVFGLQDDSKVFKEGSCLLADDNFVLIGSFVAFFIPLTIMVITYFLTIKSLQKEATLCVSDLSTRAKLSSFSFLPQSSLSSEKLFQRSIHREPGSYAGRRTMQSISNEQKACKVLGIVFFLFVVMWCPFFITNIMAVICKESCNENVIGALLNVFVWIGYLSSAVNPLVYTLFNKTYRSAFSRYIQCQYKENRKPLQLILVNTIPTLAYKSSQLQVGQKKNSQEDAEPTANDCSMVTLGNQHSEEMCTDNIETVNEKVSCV
Glucose-6-phosphate 1-dehydrogenase, sequence (P11413 whole entry): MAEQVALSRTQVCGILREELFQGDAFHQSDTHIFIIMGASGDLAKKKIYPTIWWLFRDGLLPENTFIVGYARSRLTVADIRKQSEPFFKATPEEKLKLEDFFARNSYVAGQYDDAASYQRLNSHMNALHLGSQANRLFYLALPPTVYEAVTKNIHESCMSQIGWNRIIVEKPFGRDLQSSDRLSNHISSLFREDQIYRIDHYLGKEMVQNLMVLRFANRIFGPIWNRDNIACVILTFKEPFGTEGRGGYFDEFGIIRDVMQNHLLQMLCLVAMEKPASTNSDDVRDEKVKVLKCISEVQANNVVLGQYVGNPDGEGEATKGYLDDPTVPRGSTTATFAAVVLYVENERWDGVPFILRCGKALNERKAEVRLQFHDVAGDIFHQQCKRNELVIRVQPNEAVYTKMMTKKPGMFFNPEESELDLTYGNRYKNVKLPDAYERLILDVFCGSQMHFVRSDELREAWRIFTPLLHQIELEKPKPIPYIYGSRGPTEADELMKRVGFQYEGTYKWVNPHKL
Cytochrome P450 2C9, sequence (P11712 whole entry): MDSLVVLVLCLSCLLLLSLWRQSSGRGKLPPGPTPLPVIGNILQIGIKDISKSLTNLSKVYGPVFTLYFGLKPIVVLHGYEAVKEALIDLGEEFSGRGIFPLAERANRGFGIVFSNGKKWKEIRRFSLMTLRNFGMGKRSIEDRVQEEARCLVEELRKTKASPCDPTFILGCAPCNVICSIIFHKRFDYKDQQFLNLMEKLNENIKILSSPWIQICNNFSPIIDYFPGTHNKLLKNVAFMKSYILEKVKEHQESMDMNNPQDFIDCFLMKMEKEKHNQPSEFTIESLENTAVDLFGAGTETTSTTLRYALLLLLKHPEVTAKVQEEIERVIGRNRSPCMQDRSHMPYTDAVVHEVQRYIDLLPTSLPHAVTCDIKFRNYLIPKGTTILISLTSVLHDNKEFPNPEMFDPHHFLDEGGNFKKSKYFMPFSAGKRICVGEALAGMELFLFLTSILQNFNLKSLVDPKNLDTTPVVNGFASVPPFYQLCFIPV
Induced myeloid leukemia cell differentiation protein Mcl-1, sequence (Q07820 whole entry): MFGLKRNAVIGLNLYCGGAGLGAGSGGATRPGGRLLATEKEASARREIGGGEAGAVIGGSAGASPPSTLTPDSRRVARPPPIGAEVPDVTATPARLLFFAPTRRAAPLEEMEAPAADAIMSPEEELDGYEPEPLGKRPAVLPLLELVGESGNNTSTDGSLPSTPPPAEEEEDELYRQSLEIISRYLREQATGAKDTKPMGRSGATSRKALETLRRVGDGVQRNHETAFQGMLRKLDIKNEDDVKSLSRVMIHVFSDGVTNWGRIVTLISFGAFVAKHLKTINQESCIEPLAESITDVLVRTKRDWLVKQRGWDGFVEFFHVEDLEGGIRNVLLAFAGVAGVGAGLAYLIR
Cytochrome P450 2D6, sequence (P10635 whole entry): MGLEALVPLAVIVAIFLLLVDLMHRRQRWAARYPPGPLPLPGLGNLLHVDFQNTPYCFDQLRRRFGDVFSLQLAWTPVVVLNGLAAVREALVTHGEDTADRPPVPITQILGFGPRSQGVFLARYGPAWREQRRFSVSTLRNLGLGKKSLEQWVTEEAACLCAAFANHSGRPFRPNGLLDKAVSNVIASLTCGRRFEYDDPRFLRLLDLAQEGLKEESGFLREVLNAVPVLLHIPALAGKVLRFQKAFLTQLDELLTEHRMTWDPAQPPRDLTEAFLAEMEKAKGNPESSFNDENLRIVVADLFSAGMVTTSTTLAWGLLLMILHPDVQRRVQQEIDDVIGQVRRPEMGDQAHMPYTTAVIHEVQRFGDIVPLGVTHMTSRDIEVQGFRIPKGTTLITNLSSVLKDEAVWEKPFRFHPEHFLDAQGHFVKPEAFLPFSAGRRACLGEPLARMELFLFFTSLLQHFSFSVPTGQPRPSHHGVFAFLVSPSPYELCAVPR

SMILES: CCn1c(SCc2nc3scc(-c4ccccc4)c3c(=O)[nH]2)nnc1-c1cccs1
IC50 [1]: > 80 µM (inactive)

IC50 [2]: 19.3 µM (not active)
SMILES: Cc1ccc(N2CCN(C3=NC(=O)/C(=C\c4cccs4)S3)CC2)cc1

EC50 (Mu-type opioid receptor): 92.5 µM (inactive)
EC50 [3]: 76.1 µM (inactive)
SMILES: O=S(=O)(c1ccc(OCC(O)CN2CCN(c3ccccc3O)CC2)cc1)N1CCOCC1 (stereo not drawn)

EC50 [4]: 11.3 µM (active)
SMILES: COc1ccc(-c2nnc(N3CCCCC3)c3ccccc23)cc1

EC50 (Mu-type opioid receptor): 92.5 µM (inactive)
EC50 [3]: 25.4 µM (inactive)
SMILES: O=S(=O)(c1ccc(OCC(O)CN2CCN(c3ccccc3Cl)CC2)cc1)N1CCOCC1 (stereo not drawn)

EC50 [4]: 0.802 µM (active)
AC50 (Cytochrome P450 2C9): 3.98 µM (inconclusive)
IC50 [5]: 2.32 µM (not active)
AC50 (Cytochrome P450 2C19): 2 µM (inconclusive)
AC50 (Cytochrome P450 2D6): 22.4 µM (inconclusive)
SMILES: O=C(Nc1ccc(Cl)cc1)N1CCc2[nH]c3ccccc3c2C1

EC50 [6]: > 53 µM (inactive)
IC50 [7]: > 47.1 µM (inactive)
SMILES: CC1CCC2=NN(C(=O)c3ccco3)C(O)(C(F)(F)F)C2C1 (stereo not drawn)

EC50 [4]: 2.89 µM (active)
AC50 (Cytochrome P450 3A4): 14.1 µM (inconclusive)
AC50 (Cytochrome P450 1A2): 2.51 µM (inconclusive)
SMILES: CCC(C(=O)Nc1cccc(C(F)(F)F)c1)c1ccccc1 (stereo not drawn)

IC50 [2]: > 50 µM (not active)
SMILES: O=C1c2ccccc2C(=O)N1CCc1csc(-c2ccc(F)cc2)n1

IC50 [2]: 9.21 µM (not active)
EC50 [8]: 1.88 µM (active)
SMILES: COCCn1c(SCc2ccccc2F)nc2ccccc2c1=O

EC50 [6]: > 53 µM (inactive)
IC50 [7]: > 47.1 µM (inactive)
SMILES: C[C@H](NC(=O)Nc1ccc2c(c1)OCCO2)C(=O)O

EC50 [4]: 5.35 µM (active)
SMILES: O=C(CN1C(=O)C2CC=CCC2C1=O)Nc1nnc(SCc2ccc(Cl)cc2)s1 (stereo not drawn)
